We go through 2 compounds from patent US11970440B1, “8-(3-chlorobenzylideneamino)naphthalene-1,3-disulfonic acid as an antioxidant compound” (KING FAISAL UNIVERSITY, priority 2023, dated 2024).

The assay is described as follows: DPPH (2,2-diphenyl-1-picrylhydrazyl) radical scavenging antioxidant test in vitro. The format is biochemical. To be noted: 517 nm; for Inhibition (radical scavenging inhibition): 0.2 mL DPPH (0.75 mM), compound 3 μM in ethanol, 30 min incubation in the dark. Here is the method: The antioxidant properties of the 8-(3-chlorobenzylideneamino)naphthalene-1,3-disulfonic acid were studied by adding 0.2 mL DPPH (0.75 mM)) to compound 8-(3-chlorobenzylideneamino)naphthalene-1,3-disulfonic acid (III) (3 μM) in ethanol. After 30 min of incubation in the dark, the absorbance was read against a blank at 517 nm. Ascorbic acid (vitamin C) was used as standard antioxidants (positive control). A blank sample was prepared by 0.2 ml of DPPH in 3 ml ethanol. A negative control sample was run using ethanol instead of the sample. The radical scavenging inhibition was calculated using the following equation: […]
The antioxidant activity for the synthesized compound is listed in Table 1, using Vitamin C as a reference.

With `O=S(=O)(O)c1cc(S(=O)(=O)O)c2c(/N=C/c3cccc(Cl)c3)cccc2c1` [Product III, 8-(3-chlorobenzylideneamino)naphthalene-1,3-disulfonic acid], the “Inhibition (radical scavenging inhibition)” value turned out to be 50%. Besides, the “antioxidant potential in DPPH test, in words” value (DPPH in vitro test, vitamin C as positive control) is on record as “high potential as an antioxidant compared to vitamin C”.

Turning to `O=C1O[C@H]([C@@H](O)CO)C(O)=C1O` [vit c, Ascorbic acid, reference compound], the “Inhibition (radical scavenging inhibition)” value came to 74%.
